Measurements published in patent publication US10329309B2, “3-(3H-imidazo[4,5-B]pyridin-2-yl)-1H-pyrazolo[4,3-B]pyridines and therapeutic uses thereof” (Samumed, LLC, priority 2015, dated 2019).

Assays:
[1] = test system: primary human fibroblasts derived from IPF patients (LL29 cells), α-smooth muscle actin (αSMA); assay: Inhibition of the fibrotic process: TGF-β1-treated primary human fibroblasts from IPF patients, αSMA staining; type: cell-based; details: Fibroblast, 96 h, 4 days; for EC50: LL29 fibroblasts from IPF patients, TGF-β1 20 ng/mL, inhibition of fibrotic process; for inhibition at 10 µM: LL29 fibroblasts, TGF-β1 treated, read-out: percent inhibition at 10 μM (given for EC50 of >10 μM)
In short: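 LL29 IPF-patient lung fibroblasts in 1% FBS F12 were given compounds (11-point, 10 μM to […], 0.1% DMSO) plus TGF-β1 20 ng/mL for 4 days at 37 °C. αSMA-positive fraction of live (SYTOX-negative) cells was imaged and normalized to TGF-β1/DMSO wells. EC50 by non-linear regression, or % inhibition at 10 μM if >10 μM.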

[2] = test system: Wnt activity (Sp5-Luc reporter, SW480 colon carcinoma cells); assay: Screening assay for Wnt activity: Sp5-Luc reporter gene assay in SW480 cells; type: cell-based; details: Homo sapiens; for inhibition at 10 µM: 10 μM compound, read-out: percent inhibition at 10 μM (given for EC50 of >10 μM); for EC50: overnight incubation, 10-point dose-response from 10 μM
In short: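 SW480 cells stably carrying Sp5-Luc reporter (eight TCF/LEF sites) plated at 4,000/well in 1% FBS medium with compound (10-point 1:3 series from 10 μM, 0.1% DMSO) overnight at 37 °C. BrightGlo luminescence normalized to DMSO; EC50 by four-parameter fit, else % inhibition at 10 μM.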

Row | Compound | EC50 [1] [µM] | inhibition at 10 µM [1] [%] | inhibition at 10 µM [2] [%] | EC50 [2] [µM]
1 | CS(=O)(=O)NCc1cc(F)cc(-c2ccnc3[nH]c(-c4n[nH]c5ccc(-c6cncc(NC(=O)c7ccccc7)c6)nc45)nc23)c1 [Compound 487, N-(5-(3-(7-(3-Fluoro-5-(methylsulfonamidomethyl)phenyl)-3H-imidazo[4,5-b]pyridin-2-yl)-1H-pyrazolo[4,3-b]pyridin-5-yl)pyridin-3-yl)benzamide] | > 10 | 0 | 7.1 | > 10
2 | Cn1cc(-c2ccc3[nH]nc(-c4nc5c(-c6cccc(F)c6)ccnc5[nH]4)c3n2)cn1 [Compound 508, 3-(7-(3-fluorophenyl)-3H-imidazo[4,5-b]pyridin-2-yl)-5-(1-methyl-1H-pyrazol-4-yl)-1H-pyrazolo[4,3-b]pyridine] | > 10 | 8.1 | 41 | > 10
3 | CCC(=O)Nc1cncc(-c2ccc3[nH]nc(-c4nc5c(-c6ccsc6)ccnc5[nH]4)c3n2)c1 [Compound 281, N-(5-(3-(7-(thiophen-3-yl)-3H-imidazo[4,5-b]pyridin-2-yl)-1H-pyrazolo[4,3-b]pyridin-5-yl)pyridin-3-yl)propionamide] | > 10 | 21.4 | 28.3 | > 10
4 | CC(C)C(=O)Nc1cncc(-c2ccc3[nH]nc(-c4nc5c(-c6cccnc6)ccnc5[nH]4)c3n2)c1 [Compound 93, N-(5-(3-(7-(pyridin-3-yl)-3H-imidazo[4,5-b]pyridin-2-yl)-1H-pyrazolo[4,3-b]pyridin-5-yl)pyridin-3-yl)isobutyramide] | > 10 | 0 | 10.2 | > 10
5 | COc1cccc(-c2ccnc3[nH]c(-c4n[nH]c5ccc(-c6cncc(O)c6)nc45)nc23)c1 [Compound 1030, 5-(3-(7-(3-Methoxyphenyl)-3H-imidazo[4,5-b]pyridin-2-yl)-1H-pyrazolo [4,3-b]pyridin-5-yl)pyridin-3-ol] | > 10 | 48 | 33.5 | > 10
6 | CN(C)CCOc1cncc(-c2ccc3[nH]nc(-c4nc5c(-c6cccs6)ccnc5[nH]4)c3n2)c1 [Compound 707, N,N-Dimethyl-2-((5-(3-(7-(thiophen-2-yl)-3H-imidazo[4,5-b]pyridin-2-yl)-1H-pyrazolo[4,3-b]pyridin-5-yl)pyridin-3-yl)oxy)ethan-1-amine] | 2.43 | – | – | 3.57
7 | c1cc(-c2ccnc3[nH]c(-c4n[nH]c5ccc(-c6cncc(OC7CCNCC7)c6)nc45)nc23)ccn1 [Compound 576, 5-(5-(Piperidin-4-yloxy)pyridin-3-yl)-3-(7-(pyridin-4-yl)-3H-imidazo[4,5-b]pyridin-2-yl)-1H-pyrazolo[4,3-b]pyridine] | 4.07 | – | 8.9 | > 10
8 | Cc1ncc(-c2ccc3[nH]nc(-c4nc5c(-c6ccoc6)ccnc5[nH]4)c3n2)n1C [Compound 685, 5-(1,2-Dimethyl-1H-imidazol-5-yl)-3-(7-(furan-3-yl)-3H-imidazo[4,5-b]pyridin-2-yl)-1H-pyrazolo[4,3-b]pyridine] | > 10 | 0 | – | 2.82
9 | CCCCC(=O)Nc1cncc(-c2ccc3[nH]nc(-c4nc5c(-c6cc(F)cc(NCCN(C)C)c6)ccnc5[nH]4)c3n2)c1 [Compound 467, N-(5-(3-(7-(3-((2-(dimethylamino)ethyl)amino)-5-fluorophenyl)-3H-imidazo[4,5-b]pyridin-2-yl)-1H-pyrazolo[4,3-b]pyridin-5-yl)pyridin-3-yl)pentanamide] | 2.26 | – | 34.1 | > 10
10 | c1cncc(-c2ccc3[nH]nc(-c4nc5cccnc5[nH]4)c3n2)c1 [Compound 256, 3-(3H-imidazo[4,5-b]pyridin-2-yl)-5-(pyridin-3-yl)-1H-pyrazolo[4,3-b]pyridine] | > 10 | 10.4 | 43.4 | > 10
11 | Oc1cncc(-c2ccc3[nH]nc(-c4nc5cccnc5[nH]4)c3n2)c1 [Compound 661, 5-(3-(3H-Imidazo[4,5-b]pyridin-2-yl)-1H-pyrazolo[4,3-b]pyridin-5-yl) pyridin-3-ol] | > 10 | 6.2 | 7.2 | > 10
12 | Cc1cn(-c2ccnc3[nH]c(-c4n[nH]c5ccc(-c6cncc(NC(=O)CC(C)C)c6)nc45)nc23)cn1 [Compound 198, 3-methyl-N-(5-(3-(7-(4-methyl-1H-imidazol-1-yl)-3H-imidazo[4,5-b]pyridin-2-yl)-1H-pyrazolo[4,3-b]pyridin-5-yl)pyridin-3-yl)butanamide] | > 10 | 0 | 27.6 | > 10
13 | Cc1cn(-c2ccnc3[nH]c(-c4n[nH]c5ccc(-c6cncc(N7CC(N)C7)n6)nc45)nc23)cn1 [Compound 622, 1-(6-(3-(7-(4-Methyl-1H-imidazol-1-yl)-3H-imidazo[4,5-b]pyridin-2-yl)-1H-pyrazolo[4,3-b]pyridin-5-yl)pyrazin-2-yl)azetidin-3-amine] | 4.82 | – | 9.8 | > 10
14 | Oc1cncc(-c2ccc3[nH]nc(-c4nc5c(-c6cccnc6)ccnc5[nH]4)c3n2)c1 [Compound 565, 5-(3-(7-(Pyridin-3-yl)-3H-imidazo[4,5-b]pyridin-2-yl)-1H-pyrazolo[4,3-b]pyridin-5-yl)pyridin-3-ol] | > 10 | 0 | 14.1 | > 10
15 | CN1CCN(c2ccnc3[nH]c(-c4n[nH]c5ccc(-c6cncc(NC(=O)C7CCCC7)c6)nc45)nc23)CC1 [Compound 246, N-(5-(3-(7-(4-Methylpiperazin-1-yl)-3H-imidazo[4,5-b]pyridin-2-yl)-1H-pyrazolo[4,3-b]pyridin-5-yl)pyridin-3-yl)cyclopentanecarboxamide] | 2.24 | – | 4.2 | > 10
16 | Cc1ccncc1-c1ccc2[nH]nc(-c3nc4c(-c5ccncc5)ccnc4[nH]3)c2n1 [Compound 117, 5-(4-methylpyridin-3-yl)-3-(7-(pyridin-4-yl)-3H-imidazo[4,5-b]pyridin-2-yl)-1H-pyrazolo[4,3-b]pyridine] | > 10 | 2.8 | 4.8 | > 10
17 | CC(C)C(=O)Nc1cncc(-c2ccc3[nH]nc(-c4nc5c(-c6ccccc6F)ccnc5[nH]4)c3n2)c1 [Compound 65, N-(5-(3-(7-(2-fluorophenyl)-3H-imidazo[4,5-b]pyridin-2-yl)-1H-pyrazolo [4,3-b]pyridin-5-yl)pyridin-3-yl)isobutyramide] | > 10 | 0 | 14.3 | > 10
18 | Fc1cccc(-c2ccnc3[nH]c(-c4n[nH]c5ccc(-c6cncc(OC7CCNCC7)c6)nc45)nc23)c1 [Compound 512, 3-(7-(3-fluorophenyl)-3H-imidazo[4,5-b]pyridin-2-yl)-5-(5-(piperidin-4-yloxy)pyridin-3-yl)-1H-pyrazolo[4,3-b]pyridine] | 1.66 | – | 45 | > 10
19 | c1ccc(COc2cncc(-c3ccc4[nH]nc(-c5nc6c(-c7ccncc7)ccnc6[nH]5)c4n3)c2)cc1 [Compound 582, 5-(5-(Benzyloxy)pyridin-3-yl)-3-(7-(pyridin-4-yl)-3H-imidazo[4,5-b]pyridin-2-yl)-1H-pyrazolo[4,3-b]pyridine] | 0.648 | – | 5.8 | > 10
20 | CN1CCN(c2ccnc3[nH]c(-c4n[nH]c5ccc(-c6cnccn6)nc45)nc23)CC1 [Compound 648, 3-(7-(4-Methylpiperazin-1-yl)-3H-imidazo[4,5-b]pyridin-2-yl)-5-(pyrazin-2-yl)-1H-pyrazolo[4,3-b]pyridine] | > 10 | 0 | – | 4.34
21 | CCNCc1cncc(-c2ccc3[nH]nc(-c4nc5c(-c6cc(F)cc(NCCN(C)C)c6)ccnc5[nH]4)c3n2)c1 [Compound 454, N^1-(3-(2-(5-(5-((ethylamino)methyl)pyridin-3-yl)-1H-pyrazolo[4,3-b]pyridin-3-yl)-3H-imidazo[4,5-b]pyridin-7-yl)-5-fluorophenyl)-N^2,N^2-dimethylethane-1,2-diamine] | 3.51 | – | 43.4 | > 10
22 | CC(C)C(=O)Nc1cncc(-c2ccc3[nH]nc(-c4nc5c(N6CCN(C)CC6)ccnc5[nH]4)c3n2)c1 [Compound 233, N-(5-(3-(7-(4-methylpiperazin-1-yl)-3H-imidazo[4,5-b]pyridin-2-yl)-1H-pyrazolo [4,3-b]pyridin-5-yl)pyridin-3-yl)isobutyramide] | 4.84 | – | 2.3 | > 10
23 | CC(C)(C)CC(=O)Nc1cncc(-c2ccc3[nH]nc(-c4nc5cccnc5[nH]4)c3n2)c1 [Compound 268, N-(5-(3-(3H-Imidazo[4,5-b]pyridin-2-yl)-1H-pyrazolo[4,3-b]pyridin-5-yl)pyridin-3-yl)-3,3-dimethylbutanamide] | 7.2 | – | 1.9 | > 10
